Reference: patent publication US20110086920A1, “Gamma Glutamylcysteine Treatment or Prevention of Oxidative Injury” (priority 2007, published 2011)

How the values were obtained:
neuronal cells = experiment: F2-IsoPs level (oxidative stress) in neuronal cells exposed to H2O2; type: cell-based; conditions: neuronal cells pretreated with GGC 500 μM four hours prior to exposure to H2O2
Excerpt: To quantify the oxidative stress response, as well as modification of this response by γ-glutamylcysteine supplementation, the inventors will measure isoprostane and isofuran levels. Isoprostanes are prostaglandin like compounds that are produced without cyclooxygenase by free radical induced peroxidation of arachidonic acid. Prostaglandin F2α like compounds, termed F2-isoprostanes (F2IsoPs) have been shown both in vitro and in vivo to be an accurate measure of oxidative stress.

[1] = Plasma γ-glutamylcysteine levels after intravenous administration in rats; type: in vivo
Description: (§1) FIG. 2: IV γ-glutamylcysteine Supplementation in Rats. Two rats were administered γ-glutamylcysteine intravenously. […] Plasma was collected at 0, 15, 30, 60, 90, and 120 minutes post-administration and assayed for γ-glutamylcysteine levels.
(§2) Two rats were administered γ-glutamylcysteine intravenously. […] Plasma was collected at 0, 15, 30, 60, 90, and 120 minutes post-administration and assayed for γ-glutamylcysteine levels.

Neurons and Astrocytes = experiment: Cell death after H2O2 oxidative stress in vitro (MTT, LDH, GSH assays); type: cell-based; conditions: γ-glutamylcysteine 500 μM; 10 μM H2O2
Excerpt: FIGS. 1A-F: Effects of γ-glutamylcysteine on Neurons and Astrocytes. Protection of cells as measured by MTT (3-(4,5-Dimethylthiazol-2-yl)-2,5-diphenyltetrazolium bromide) assay, GSH (glutathione) assay, and LDH (lactate dehydrogenase) assay.

[2] = rat, in vivo
Description: as §1, §2

glutathione = experiment: Tissue glutathione levels after intravenous γ-glutamylcysteine supplementation in rats; type: in vivo; conditions: for Tissue Glutathione Concentration: rats 400 mg/kg IV, mean (95% CI)
Description: Ten rats were also administered 400 mg/kg of γ-glutamylcysteine intravenously. Major organ tissues were harvested from these rats at 0, 30, 60, 90, 120, and 240 minutes and assayed for glutathione concentration. […] [table]

SMILES: N[C@@H](CCC(=O)N[C@@H](CS)C(=O)O)C(=O)O [γ-glutamylcysteine]
- level of F2-IsoPs (oxidative stress) (neuronal cells): reduced
- plasma γ-glutamylcysteine levels ([1]; rats): significant elevation
- time of peak plasma γ-glutamylcysteine concentration post-injection ([1]; two rats, plasma at 0-120 min): 30 min
- cell death after exposure to H2O2 (Neurons and Astrocytes): significantly reduce cell death
- tolerability of intravenous supplementation [2]: well-tolerated
- clinically visible signs of toxicity ([2]; iv): no clinically visible signs of toxicity
- Tissue Glutathione Concentration (glutathione; Brain, 0 min, n=5): 57.3 (3.3-111.3) μM
- Tissue Glutathione Concentration (glutathione; Brain, 60 min, n=4): 302.3 (190.0-414.5) μM
- Tissue Glutathione Concentration (glutathione; Brain, 90 min, n=2): 146.9 (−1200.5-1494.3) μM
- Tissue Glutathione Concentration (glutathione; Brain, 120 min, n=2): 170.7 (152.0-189.5) μM
- Tissue Glutathione Concentration (glutathione; Brain, 240 min, n=2): 110.7 (54.1-167.3) μM
- Tissue Glutathione Concentration (glutathione; GI, 0 min, n=5): 12.9 (7.2-18.5) μM
- Tissue Glutathione Concentration (glutathione; GI, 60 min, n=4): 189.8 (−5.5-385.0) μM
- Tissue Glutathione Concentration (glutathione; GI, 90 min, n=2): 166.8 (−1699.0-2032.5) μM
- Tissue Glutathione Concentration (glutathione; GI, 120 min, n=2): 14.0 (−1.6-29.6) μM
- Tissue Glutathione Concentration (glutathione; GI, 240 min, n=2): 18.5 (−100.3-137.3) μM
- Tissue Glutathione Concentration (glutathione; Heart, 0 min, n=5): 210.9 (34.4-387.4) μM
- Tissue Glutathione Concentration (glutathione; Heart, 60 min, n=4): 353.4 (220.9-486.0) μM
- Tissue Glutathione Concentration (glutathione; Heart, 90 min, n=2): 658.9 (504.5-813.2) μM
- Tissue Glutathione Concentration (glutathione; Heart, 120 min, n=2): 165.9 (149.4-182.4) μM
- Tissue Glutathione Concentration (glutathione; Heart, 240 min, n=2): 278.1 (170.7-385.4) μM
- Tissue Glutathione Concentration (glutathione; Kidney, 0 min, n=5): 14.9 (4.5-25.2) μM
- Tissue Glutathione Concentration (glutathione; Kidney, 60 min, n=4): 13.5 (−9.1-36.2) μM
- Tissue Glutathione Concentration (glutathione; Kidney, 90 min, n=2): 39.1 (−195.0-273.2) μM
- Tissue Glutathione Concentration (glutathione; Kidney, 120 min, n=2): 13.4 (−16.9-43.6) μM
- Tissue Glutathione Concentration (glutathione; Kidney, 240 min, n=2): 10.2 (−8.9-29.3) μM
- Tissue Glutathione Concentration (glutathione; Liver, 0 min, n=5): 2162.4 (1490.3-2834.5) μM
- Tissue Glutathione Concentration (glutathione; Liver, 60 min, n=4): 5066.4 (−85.9-10218.8) μM
- Tissue Glutathione Concentration (glutathione; Liver, 90 min, n=2): 10832.6 (9616.0-12049.1) μM
- Tissue Glutathione Concentration (glutathione; Liver, 120 min, n=2): 2990.0 (2239.8-3740.1) μM
- Tissue Glutathione Concentration (glutathione; Liver, 240 min, n=2): 4213.7 (−6431.5-14858.8) μM
- Tissue Glutathione Concentration (glutathione; Lung, 0 min, n=5): 142.2 (50.8-233.7) μM
- Tissue Glutathione Concentration (glutathione; Lung, 60 min, n=4): 293.5 (248.6-338.4) μM
- Tissue Glutathione Concentration (glutathione; Lung, 90 min, n=2): 412.2 (−571.1-1395.4) μM
- Tissue Glutathione Concentration (glutathione; Lung, 120 min, n=2): 166.4 (−58.3-391.0) μM
- Tissue Glutathione Concentration (glutathione; Lung, 240 min, n=2): 93.2 (−261.7-448.1) μM
- Tissue Glutathione Concentration (glutathione; Muscle, 0 min, n=5): 228.5 (125-0-331.9) μM
- Tissue Glutathione Concentration (glutathione; Muscle, 60 min, n=4): 307.6 (−1.1-616.3) μM
- Tissue Glutathione Concentration (glutathione; Muscle, 90 min, n=2): 654.5 (44.8-1264.2) μM
- Tissue Glutathione Concentration (glutathione; Muscle, 120 min, n=2): 170.5 (−137.5-478.6) μM
- Tissue Glutathione Concentration (glutathione; Muscle, 240 min, n=2): 21.9 (−16.3-60.1) μM
- mean glutathione levels in brain, heart, lung, liver, kidney, gastrointestinal and muscle tissues (glutathione; rats, 400 mg/kg intravenous): increased
- tissue glutathione levels (glutathione; rats, intravenous): significant elevation
